Results from PMC10012588, “Engineering Streptomyces albulus to enhance ε-poly-L-lysine production by introducing a polyphosphate kinase-mediated ATP regeneration system” (Microbial Cell Factories, 2023).

Experiments:
Format in all cases: biochemical
PPK1 [1] = molecular target: T1, PPK1 (Streptomyces noursei, UniProt A0A2N8P4S7); experiment: ATP formation from ADP and polyPn; details: 5 uM ADP, 5 uM polyP (polyP6 best), 20 mM MgSO4, 50 mM Tris-HCl pH 8.0, 30 °C, 2 h
T1 construct: gene ppk; gene amplified from the WG608 genome

PPK2B^cg = PPK2B^cg (Corynebacterium glutamicum, UniProt Q8NM65); experiment: ATP formation from ADP and polyPn; details: 5 uM ADP, 5 uM polyP (polyP6 best), 20 mM MgSO4, 50 mM Tris-HCl pH 8.0, 30 °C, 2 h
PPK2C^pa = molecular target: T2, PPK2C^pa (Pseudomonas aeruginosa, UniProt Q9HYF1); experiment: ATP formation from ADP and polyPn; details: 5 uM ADP, 5 uM polyP (polyP6 best), 20 mM MgSO4, 50 mM Tris-HCl pH 8.0, 30 °C, 2 h
T2 construct: gene PA3455
T2 sequence (Q9HYF1 1-496): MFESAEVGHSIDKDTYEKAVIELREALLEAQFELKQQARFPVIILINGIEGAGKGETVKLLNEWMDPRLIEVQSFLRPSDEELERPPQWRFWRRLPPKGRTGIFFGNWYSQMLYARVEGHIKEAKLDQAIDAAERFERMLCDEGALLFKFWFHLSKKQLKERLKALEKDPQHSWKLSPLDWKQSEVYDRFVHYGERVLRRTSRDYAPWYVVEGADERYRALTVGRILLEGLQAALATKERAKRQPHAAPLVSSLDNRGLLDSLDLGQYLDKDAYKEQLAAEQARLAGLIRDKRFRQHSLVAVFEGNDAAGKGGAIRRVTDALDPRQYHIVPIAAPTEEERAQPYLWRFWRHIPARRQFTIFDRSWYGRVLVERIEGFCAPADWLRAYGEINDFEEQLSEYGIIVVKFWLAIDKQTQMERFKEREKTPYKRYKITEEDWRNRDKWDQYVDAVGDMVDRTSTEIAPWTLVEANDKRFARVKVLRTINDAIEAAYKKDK

PPK1 [2] = molecular target: T1, PPK1; experiment: change of ATP concentration, reverse reaction; details: 0-10 uM ATP, 5 uM ADP, 5 uM polyP6, 20 mM MgSO4, 50 mM Tris-HCl pH 8.0, 30 °C, 2 h

Compound	ATP formation from ADP and polyPn (PPK1 [1])	ATP formation from ADP and polyPn (PPK2B^cg)	ATP formation from ADP and polyPn (PPK2C^pa)	change of ATP concentration, reverse reaction (PPK1 [2])
Nc1ncnc2c1ncn2[C@@H]1O[C@H](COP(=O)(O)OP(=O)(O)O)[C@@H](O)[C@H]1O [ADP]	The activities of the three PPKs were compared in vitro using ADP, and different polyPs	PPK2B^cg exhibited the highest ATP production ability	The activities of the three PPKs were compared in vitro using ADP, and different polyPs	–
Nc1ncnc2c1ncn2[C@@H]1O[C@H](COP(=O)(O)OP(=O)(O)OP(=O)(O)O)[C@@H](O)[C@H]1O [ATP]	–	–	–	PPK1 catalyzes polyP6 polymerization and ATP is degraded into ADP
